Measured values published in patent publication US20080175891A1, “METHODS, COMPOSITIONS, AND FORMULATIONS FOR PREVENTING OR REDUCING ADVERSE EFFECTS IN A PATIENT” (priority 2007, published 2008).

How the values were obtained:
mast cells = assay: Mast cell activation / degranulation; format: cell-based
Text: As discussed in B. Benacerra and A. Unanue in Textbook of Immunology (Williams & Williams Baltimore/London, 1979), a key to suppressing allergic responses is to prevent the release of pharmacologically active substances by mast cells. Mast cells are large basophilic staining cells with extensive granules that contain substances, such as histamines, that are liberated by the mast cell during an allergic reaction and are required to support the allergic response. The release of these pharmacologically active substances present in mast cells is termed “degranulation.” Thus, chemicals that prevent degranulation should have a beneficial effect on reducing the severity of the allergic response. […] Mast cell activation also causes the release of prostaglandins and leukotrienses (non-preformed mediators) such as slow reactive substance of anaphylaxis.

seizures = conditions: experimental animal model; cited from earlier work
[1] = tested on: bronchospasm induced by antigen sensitization; conditions: guinea pig; cited from earlier work
arrhythmias = assay: Prophylactic effect of AICA riboside treatment on arrhythmias (Examples VI and XIV); format: in vivo
Text: Another disease caused by or able to cause restricted blood flow is myocardial arrhythmia. Although restricted blood flow can initiate the onset of arrhythmia, the precise cause is unknown. However, it is known that lipid peroxidation by oxygen radicals is arrhythmogenic. Since the latter are produced by granulocytes, the inhibition of granulocyte superoxide production by the method of the invention can be expected to control arrhythmia. In addition, mast cells are in higher concentration in areas of atherosclerosis. Suppression of their activation might reduce the release of other mediators of arrhythmias. Adenosine also has direct anti-arrhythmic effects on myocytes. […] Rapid firing of cells during arrhythmia causes increased net ATP catabolism and adenosine release.

[2] = tested on: pentylene tetrazol-induced seizures; assay: Pentylene tetrazol-induced seizures (Example XIII); conditions: in vivo
Text: The adenosine released from neuronal cells when they are stimulated and break down ATP during seizure (epileptic) activity normally will feedback and suppress this seizure (epileptic) activity.

[3] = tested on: patients with adenylosuccinase deficiency (autism); assay: Therapeutic trials in patients with adenylosuccinase deficiency (autism) (Example X); format: in vivo, human; conditions: oral
Description: Conditions potentially associated with chronic low adenosine may also be treated by compounds of the invention. These pathologic states include autism, insomnia, cerebral palsy, schizophrenia, and other neuropsychiatric symptoms. It is anticipated that doses ranging from 0.1 mg/kg/day up to about 200 mg/kg/day will be beneficial.

[4] = human, in vivo
Text: Applicant also discovered that lower doses of AICA riboside were needed to achieve the desired blood concentration levels in anesthetized patients than in non-anesthetized patients. It appears that the dose needed in anesthetized patients may be about 20-50% less than the dose needed in non-anesthetized patients. Thus, a preferred dosage of AICA riboside (or prodrug) in a non-anesthetized patient or a patient anesthetized for a short time is larger than the preferred dosage for an anesthetized patient. Accordingly, dosages of from about 0.075 mg/kg/min to about 0.30 mg/kg/min are preferred in such cases, more preferably between about 0.10 mg/kg/min and about 0.15 mg/kg/min, and most preferably about 0.125 mg/kg/min.

Question: Which mast cell activation (mast cells) does the source give for `NC(=O)c1ncn([C@@H]2O[C@H](CO)[C@@H](O)[C@H]2O)c1N` [AICA riboside, 5-amino-1-β-D-ribofuranosyl-imidazole-4-carboxamide] here?
Answer: suppress mast cell activation

Question: And the mast cell degranulation (mast cells)?
Answer: prevent mast cell degranulation

Question: What about the inhibition of seizures (seizures) of the same molecule?
Answer: inhibitor of seizures

Question: And the anti-allergic actions [1]?
Answer: anti-allergic actions

Question: And the “number of premature ventricular depolarizations” value (arrhythmias)?
Answer: decreased number

Question: And the “number of ventricular tachycardia episodes” value (arrhythmias)?
Answer: decreased number

Question: What about the “incidence of pentylene tetrazol-induced seizures” value [2] of the same molecule?
Answer: decreased incidence

Question: What about the “latency to pentylene tetrazol-induced seizures” value [2] of the same molecule?
Answer: prolonged latency

Question: And the “clinical or biochemical side effects” value ([3]; 5 mg/kg/day increased to 2×10 mg/kg/day)?
Answer: No clinical or biochemical side effects were observed

Question: What about the “behaviour during therapy as described by the parent” value ([3]; 5 mg/kg/day increased to 2×10 mg/kg/day, both patients) of the same molecule?
Answer: more pleasantly active and more easy to handle during therapy

Question: And the clinical improvement ([3]; 5 mg/kg/day increased to 2×5 and finally 2×10 mg/kg/day, two patients)?
Answer: clear-cut improvement in one of two patients

Question: And the “dose needed in anesthetized patients, less than in non-anesthetized patients” value [4]?
Answer: 20-50%

Question: Which melting point does the source give for `CC(=O)OC[C@H]1O[C@@H](c2nc(C(N)=O)c(N)[nH]2)[C@H](OC(C)=O)[C@@H]1OC(C)=O` [Compound No. 2, 5-Amino-(2,3,5-tri-O-acetyl-beta-D-ribofuranosyl)imidazole-4-carboxamide] here?
Answer: 128 to 129 °C

Question: With `Nc1c(C(=O)NCCCCCCNC(=O)c2ncn([C@@H]3O[C@H](CO)[C@@H](O)[C@H]3O)c2N)ncn1[C@@H]1O[C@H](CO)[C@@H](O)[C@H]1O` [Compound No. 68, N,N′-bis-(5-amino-1-β-D-ribofuranosylimidazole-4-carbonyl)-1,6-diaminohexane] as the molecule, how does the melting point read?
Answer: 181 to 185 °C

Question: For `NC(=O)c1ncn([C@@H]2O[C@H](CO)[C@@H](O)[C@H]2O)n1` [ribavirin, 1-β-D-ribofuranosyl-1H-1,2,4-triazole-3-carboxamide], which mast cell activation (mast cells) is on record?
Answer: suppress mast cell activation

Question: And the mast cell degranulation (mast cells)?
Answer: prevent mast cell degranulation
